# Measured values from patent publication US9072660B2, “Topical itraconazole formulations and uses thereof” (THE BOARD OF TRUSTEES OF THE LELAND STANFORD JUNIOR …, priority 2011, dated 2015).
# Assays:
# BCC tumors [1] = assay: oral itraconazole on endogenous BCC tumors in PTCH1+/- K14-Cre-ER2 p53fl/fl mice; assay type: in vivo
# [2] = cited from earlier work
# [3] = test system: Hedgehog signaling pathway (Smo); settings: cited from earlier work
# [4] = test system: ASZ BCC tumor cell line (GLI1 mRNA); assay: GLI1 mRNA expression in BCC tumor cell line ASZ; assay type: cell-based, mice; settings: ASZ cells, vs DMSO control
# [5] = cited from earlier work; remark: listed apart in the source
# BCC tumors [6] = assay: oral itraconazole in patients with BCC tumors; assay type: in vivo, humans; settings: oral 400 mg per day for 1 month
# [7] = test system: BSZ BCC tumor cell line (GLI1 mRNA); assay: GLI1 mRNA expression in BCC tumor cell line BSZ; assay type: cell-based, mice; settings: BSZ cells, vs DMSO control
# BCCs (Smo) = settings: cited from earlier work
serum concentrations required for oral anti-BCC effect in mouse vs those reached in humans at regular therapeutic doses (400 mg/day orally) (BCC tumors [1]; in vivo mouse studies),Structure (SMILES),"BCC tumor necrosis (BCC tumors [1]; itraconazole 400 mg/day vs cyclodextrin control treated mice, P<0.02, FIG. 2 left)","reduction of BCC tumor size (BCC tumors [1]; oral gavage, 200 mg BID, in 15 days, vs control (cyclodextrin or acetone), P<0.05, FIG. 1) [%]",Protein binding [2] [%],ciliary accumulation of Smo normally caused by HH stimulation [3],"inhibition of the HH signaling pathway ([3]; model cell-based assays, by binding to Smo)",expression of the HH target gene GLI1 ([3]; model cell-based assays),GLI1 mRNA expression ([4]; 0.1 μM),GLI1 mRNA expression ([4]; 1.0 μM),Half-life ([5]; in vivo) [h],Oral Bio-availability ([5]; with meal) [%],change of BCC tumor size on average (95% Confidence Interval: 11% to −62%) (BCC tumors [6]) [%],GLI1 mRNA expression ([7]; 0.1 μM),GLI1 mRNA expression ([7]; 1.0 μM),inhibition of BCCs (BCCs (Smo); model systems (in vitro and in vivo)),side effects (BCCs (Smo); systemic use)
appreciably higher,"CCC(C)n1ncn(-c2ccc(N3CCN(c4ccc(OC[C@H]5CO[C@](Cn6cncn6)(c6ccc(Cl)cc6Cl)O5)cc4)CC3)cc2)c1=O (relative stereo) [itraconazole, (2R,4S)-rel-1-(butan-2-yl)-4-{4-[4-(4-{[(2R,4S)-2-(2,4-dichlorophenyl)-2-(1H-1,2,4-triazol-1-ylmethyl)-1,3-dioxolan-4-yl]methoxy}phenyl)piperazin-1-yl]phenyl]-4,5-dihydro-1H-1,2,4-triazol-5-one]",caused BCC tumor necrosis,50,99.8,prevents,potently inhibited,decreased,reduced,reduced,21,55,−21,reduced,reduced,–,–
–,CC1=C2C[C@H]3[C@@H](CC=C4C[C@@H](O)CC[C@@]43C)[C@@H]2CC[C@]12O[C@@H]1C[C@H](C)CN[C@H]1[C@H]2C [cyclopamine],–,–,–,–,–,–,–,–,–,–,–,–,–,effectively inhibited,severe side effects
